Several values for one entry are separate records, joined by “and”; a condition that tells them apart may be missing. Identical values can stand only once. Inconclusive results and toxic doses are left out.
System: L1210 leukemia ip in BDF1 mice, survival T/C
Test: NCI In Vivo Anticancer Drug Screen. Data for tumor model L1210 Leukemia (intraperitoneal) in B6D2F1 (BDF1) mice
Conditions: endpoint: mean survival time, higher = longer survival
Procedure, shortened: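 Tumor was transplanted into mice, which were then dosed with test compound or vehicle alone. Survival was recorded for each group, and the treated figure was expressed relative to the control figure.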

[1] = dose: 12.5 mg/kg/injection, schedule: Q01DX009 (ip), vehicle: Klucel (hydroxypropylcellulose) (HPC)
[2] = dose: 25.0 mg/kg/injection, schedule: Q01DX009 (ip), vehicle: Klucel (hydroxypropylcellulose) (HPC)
[3] = dose: 50.0 mg/kg/injection, schedule: Q01DX009 (ip), vehicle: Klucel (hydroxypropylcellulose) (HPC)
[4] = dose: 100.0 mg/kg/injection, schedule: Q01DX009 (ip), vehicle: Klucel (hydroxypropylcellulose) (HPC)
[5] = dose: 100.0 mg/kg/injection, schedule: Q04DX003 (ip), vehicle: saline with Tween-80
[6] = dose: 200.0 mg/kg/injection, schedule: Q04DX003 (ip), vehicle: saline with Tween-80
[7] = dose: 400.0 mg/kg/injection, schedule: Q04DX003 (ip), vehicle: saline with Tween-80
[8] = dose: 100.0 mg/kg/injection, schedule: Q04DX002 (ip), vehicle: saline with Tween-80
[9] = dose: 200.0 mg/kg/injection, schedule: Q04DX002 (ip), vehicle: saline with Tween-80
[10] = dose: 400.0 mg/kg/injection, schedule: Q04DX002 (ip), vehicle: saline with Tween-80
[11] = dose: 100.0 mg/kg/injection, schedule: Q01DX001 (ip), vehicle: saline
[12] = dose: 200.0 mg/kg/injection, schedule: Q01DX001 (ip), vehicle: saline
[13] = dose: 100.0 mg/kg/injection, schedule: Q04DX003 (ip), vehicle: saline
[14] = dose: 200.0 mg/kg/injection, schedule: Q04DX003 (ip), vehicle: saline
[15] = dose: 400.0 mg/kg/injection, schedule: Q04DX003 (ip), vehicle: saline
[16] = dose: 100.0 mg/kg/injection, schedule: Q01DX009 (ip), vehicle: saline
[17] = dose: 200.0 mg/kg/injection, schedule: Q01DX009 (ip), vehicle: saline
[18] = dose: 400.0 mg/kg/injection, schedule: Q01DX009 (ip), vehicle: saline
[19] = dose: 50.0 mg/kg/injection, schedule: Q04DX003 (ip), vehicle: saline
[20] = dose: 25.0 mg/kg/injection, schedule: Q01DX009 (ip), vehicle: saline
[21] = dose: 25.0 mg/kg/injection, schedule: Q04DX003 (ip), vehicle: saline
[22] = dose: 50.0 mg/kg/injection, schedule: Q01DX009 (ip), vehicle: saline
[23] = dose: 100.0 mg/kg/injection, schedule: Q01DX009 (ip), vehicle: saline with Tween-80
[24] = dose: 200.0 mg/kg/injection, schedule: Q01DX009 (ip), vehicle: saline with Tween-80
[25] = dose: 400.0 mg/kg/injection, schedule: Q01DX009 (ip), vehicle: saline with Tween-80

With `COC(=O)c1nc(Cl)nc(S(C)(=O)=O)c1Cl` the T/C [1] was 109 % of control, the T/C [2] was 103 % of control and the T/C [3] was 103 % of control and 89 % of control. The T/C [4] was 92 % of control.

With `CNCCc1cc2c(c(OC)c1/C=C/C(=O)/C=C/c1c(CCNC)cc3c(c1OC)OCO3)OCO2` the T/C (dose: 75.0 mg/kg/injection, schedule: Q01DX001 (ip), vehicle: carboxymethylcellulose (CMC)) was 100 % of control and the T/C (dose: 150.0 mg/kg/injection, schedule: Q01DX001 (ip), vehicle: carboxymethylcellulose (CMC)) was 100 % of control.

With `O=C1/C(=C/c2ccccc2)SC(=S)N1C1OC(CO)C(O)C(O)C1O` (configuration not stated) the T/C (dose: 12.5 mg/kg/injection, schedule: Q01DX005 (ip), vehicle: other) was 98 % of control, the T/C (dose: 25.0 mg/kg/injection, schedule: Q01DX005 (ip), vehicle: other) was 98 % of control and the T/C (dose: 50.0 mg/kg/injection, schedule: Q01DX005 (ip), vehicle: other) was 106 % of control. For the same compound, the T/C (dose: 100.0 mg/kg/injection, schedule: Q01DX005 (ip), vehicle: other) was 101 % of control and the T/C (dose: 200.0 mg/kg/injection, schedule: Q01DX005 (ip), vehicle: other) was 98 % of control.

With `O=C1NC(=S)S/C1=C\c1ccc(N(CCCl)CCCl)cc1` the T/C [5] was 96 % of control, the T/C [6] was 93 % of control and the T/C [7] was 96 % of control.

For `CN(C)CCN(C)C(=O)C(O)(c1ccccc1)c1ccccc1`, the T/C [8] was 97 % of control, the T/C [9] was 97 % of control and the T/C [10] was 97 % of control.

`COC1OC(COC(=O)c2ccc([N+](=O)[O-])cc2)C(OCc2ccccc2)C1OC(=O)c1ccc([N+](=O)[O-])cc1` (configuration not stated) was tested, and the T/C (dose: 50.0 mg/kg/injection, schedule: Q01DX001 (ip), vehicle: saline) was 113 % of control, the T/C [11] was 105 % of control and the T/C [12] was 116 % of control. The T/C (dose: 400.0 mg/kg/injection, schedule: Q01DX001 (ip), vehicle: saline) was 105 % of control.

With `O=C(O)CCCCCn1nnc2c(=O)[nH]cnc21` the T/C [13] was 106 % of control, the T/C [14] was 106 % of control and the T/C [15] was 101 % of control.

`CN(Cc1cnc2nc(N)nc(N)c2n1)c1ccc(C(=O)NC(CCC(=O)O)C(=O)O)c(Cl)c1` (configuration not stated) was tested, and the T/C (dose: 25.0 mg/kg/injection, schedule: Q01DX009 (ip), vehicle: sodium bicarbonate) was 154 % of control.

With `O=c1c2cc([N+](=O)[O-])cc3c2-c2c4c(cc([N+](=O)[O-])cc14)c(O)c1cc([N+](=O)[O-])cc(c3=O)c21` the T/C (dose: 100.0 mg/kg/injection, schedule: Q04DX003 (ip), vehicle: acetone) was 123 % of control, the T/C (dose: 200.0 mg/kg/injection, schedule: Q04DX003 (ip), vehicle: acetone) was 120 % of control and the T/C (dose: 266.0 mg/kg/injection, schedule: Q04DX003 (ip), vehicle: saline) was 111 % of control. For the same compound, the T/C [15] was 116 % of control.

With `CCOC(=O)C(C(=O)OCC)C1c2ccccc2C(=NO)c2ccccc21` (configuration not stated) the T/C [3] was 96 % of control, the T/C [4] was 98 % of control and the T/C (dose: 100.0 mg/kg/injection, schedule: Q04DX003 (ip), vehicle: Klucel (hydroxypropylcellulose) (HPC)) was 88 % of control. For the same compound, the T/C (dose: 200.0 mg/kg/injection, schedule: Q01DX009 (ip), vehicle: Klucel (hydroxypropylcellulose) (HPC)) was 94 % of control and the T/C (dose: 200.0 mg/kg/injection, schedule: Q04DX003 (ip), vehicle: Klucel (hydroxypropylcellulose) (HPC)) was 92 % of control.

With `CC1=C(C)C(=O)C(SC2CC(=O)OC2=O)=C(C)C1=O` (configuration not stated) the T/C (dose: 100.0 mg/kg/injection, schedule: Q01DX001 (ip), vehicle: saline with Tween-80) was 88 % of control.

In the case of `C=CCNC(C)=O`, the T/C [16] was 97 % of control, the T/C [13] was 98 % of control and the T/C [17] was 97 % of control. For the same compound, the T/C [14] was 97 % of control and the T/C [18] was 97 % of control.

In the case of `CCc1cccc(CC)c1NC(=O)Nc1ccc(Br)cc1`, the T/C [19] was 87 % of control, the T/C [11] was 86 % of control and the T/C [13] was 87 % of control. The T/C [12] was 89 % of control and the T/C [14] was 92 % of control.

`CCN(CC)CCCC(C)Nc1cc(N)nc2nc(-c3ccccc3)cnc12` (configuration not stated) (tested in a mixture with another compound) was tested, and the T/C (dose: 75.0 mg/kg/injection, schedule: Q01DX001 (ip), vehicle: saline) was 86 % of control and 91 % of control and the T/C (dose: 150.0 mg/kg/injection, schedule: Q01DX001 (ip), vehicle: saline) was 97 % of control.

`C1=CC2C1C1(Cc3ccccc3)N=NC2(Cc2ccccc2)C2C=CC21` (configuration not stated) was tested, and the T/C (dose: 100.0 mg/kg/injection, schedule: Q04DX002 (ip), vehicle: Klucel (hydroxypropylcellulose) (HPC)) was 97 % of control, the T/C (dose: 200.0 mg/kg/injection, schedule: Q04DX002 (ip), vehicle: Klucel (hydroxypropylcellulose) (HPC)) was 94 % of control and the T/C (dose: 400.0 mg/kg/injection, schedule: Q04DX002 (ip), vehicle: Klucel (hydroxypropylcellulose) (HPC)) was 87 % of control.

`C#CCOCC1CNC(=O)O1` (configuration not stated) was tested, and the T/C [20] was 95 % of control, the T/C [21] was 103 % of control and the T/C [22] was 96 % of control. For the same compound, the T/C [19] was 105 % of control, the T/C [16] was 96 % of control and the T/C [13] was 97 % of control. The T/C [17] was 101 % of control, the T/C [14] was 100 % of control and the T/C [18] was 91 % of control. The T/C [15] was 105 % of control.

`O=C(OC(=O)C1CC1)C1CC1` was tested, and the T/C (dose: 12.5 mg/kg/injection, schedule: Q01DX009 (ip), vehicle: saline) was 96 % of control, the T/C [20] was 92 % of control and the T/C [21] was 90 % of control. The T/C [22] was 96 % of control and 111 % of control, the T/C [19] was 88 % of control and the T/C [13] was 96 % of control and 101 % of control.

With `O=C(Nc1ccc(Cl)c(C(F)(F)F)c1)OCc1ccco1` the T/C (dose: 100.0 mg/kg/injection, schedule: Q01DX009 (ip), vehicle: gum acacia) was 93 % of control, the T/C (dose: 200.0 mg/kg/injection, schedule: Q01DX009 (ip), vehicle: gum acacia) was 100 % of control and the T/C (dose: 400.0 mg/kg/injection, schedule: Q01DX009 (ip), vehicle: gum acacia) was 92 % of control.

In the case of `ClC1C2C=CC1CC2` (configuration not stated), the T/C (dose: 100.0 mg/kg/injection, schedule: Q01DX001 (ip), vehicle: carboxymethylcellulose (CMC)) was 90 % of control, the T/C (dose: 200.0 mg/kg/injection, schedule: Q01DX001 (ip), vehicle: carboxymethylcellulose (CMC)) was 90 % of control and the T/C (dose: 400.0 mg/kg/injection, schedule: Q01DX001 (ip), vehicle: carboxymethylcellulose (CMC)) was 93 % of control.

With `NC(CSS(=O)(=O)O)=NCc1cccs1` the T/C (dose: 12.5 mg/kg/injection, schedule: Q01DX009 (ip), vehicle: saline with Tween-80) was 103 % of control and the T/C (dose: 25.0 mg/kg/injection, schedule: Q01DX009 (ip), vehicle: saline with Tween-80) was 96 % of control.

In the case of `C/C=C/C=C\COC(=O)C(C)(C)CCC`, the T/C [23] was 90 % of control, the T/C [8] was 98 % of control and the T/C (dose: 100.0 mg/kg/injection, schedule: Q04DX002 (ip), vehicle: saline) was 96 % of control. The T/C [24] was 90 % of control, the T/C [9] was 95 % of control and the T/C (dose: 200.0 mg/kg/injection, schedule: Q04DX002 (ip), vehicle: saline) was 103 % of control. For the same compound, the T/C [25] was 93 % of control, the T/C [10] was 95 % of control and the T/C (dose: 800.0 mg/kg/injection, schedule: Q04DX002 (ip), vehicle: saline with Tween-80) was 95 % of control.

`Cc1nc2c(-c3ccccc3)nc(C)n2nc1C` was tested, and the T/C [8] was 111 % of control, the T/C [9] was 108 % of control and the T/C [10] was 92 % of control.

`COC(=O)CC1(O)C=CC(=O)C=C1` was tested, and the T/C (dose: 6.25 mg/kg/injection, schedule: Q01DX009 (ip), vehicle: Klucel (hydroxypropylcellulose) (HPC)) was 95 % of control, the T/C [1] was 92 % of control and the T/C [2] was 108 % of control. The T/C [20] was 100 % of control.

With `CCOP(=S)(N/N=C1\CC2CCC1C2)OCC` (configuration not stated) the T/C (dose: 100.0 mg/kg/injection, schedule: Q01DX001 (ip), vehicle: other) was 94 % of control.

For `CC(=O)CC(=O)NC(C)CCc1ccccc1` (configuration not stated), the T/C [23] was 92 % of control, the T/C [5] was 98 % of control and the T/C [24] was 92 % of control. The T/C [6] was 102 % of control, the T/C [25] was 104 % of control and the T/C [7] was 98 % of control.
